# Test results: patent publication US9757408B2 (Hayashibara Co., Ltd., priority 2010, dated 2017)
# pIC50: −log10 of the molar value.
# Tests used:
# [1] = test system: mice with concanavalin A (Con A) induced liver disorder; assay: Concanavalin A induced liver disorder mice: GPT, GOT, liver necrosis score (Experiment 12); assay type: in vivo, BALB/c mice; design: Liver function GPT / Liver function GOT: unit not given here; settings: Con A 15 mg/kg i.v.
# Protocol: “TYPE IV”, a Con A specimen commercialized by Sigma-Aldrich Corporation, St. Louis, Mo. USA, was dissolved in physiological saline and intravenously administered to all the five mice in each six groups at a dose of 15 mg/0.2 mL. […] The five mice in the remaining one group as a control were intravenously administered with 0.2 mL/head of physiological saline, simultaneously with Con A (Experiment group 1).
# For the mice in each group, they were collected blood at 20 hours after administering Con A, followed by assaying the activity of GPT and GOT in their sera with “TRANSAMINASE CII-TEST WAKO”, a commercialized assay kit produced by Wako Pure Chemical Industries Ltd., Tokyo, Japan, for use as an index for liver disorder due to hepatitis. […] The tissue specimens were stained with hematoxylin-eosin staining, followed by calculating an average of scores for judgement on the conditions of necrosis of liver tissues by microscopic observation, for use as an index for liver disorder. The results are in Table 12 in parallel. The conditions of necrosis of liver tissues were evaluated based on a microscopic observation standard of three grades of “mild (1)”, “moderate (2)”, and “severe (3)” and scored before determining the average for each group.
# [2] = test system: mice with colitis induced by dextran sulfate sodium; assay: Dextran sulfate sodium colitis mice: diarrhea/hematochezia scores, DAI, haptoglobin (Experiment 13); assay type: in vivo, C57BL/6 mice; settings: dextran sulfate sodium intake, 94 mg/kg orally once a day
# Protocol: Dextran sulfate sodium (commercialized by MP Biomedicals, CA, USA, molecular weight of 36,000 to 50,000) was dissolved in tap water, and all the mice of these five groups consisting of eight heads each were allowed to freely take the solution for five days (Experiment groups 2 to 5). […] The eight mice of the remaining one group were administered through a gastric tube with PBS once a day at a dose of 0.2 mL/head over 11 days from the day of initiating the administration of dextran sulfate sodium (Experiment group 2). The five mice of one group, which had not been administered with dextran sulfate sodium, were bred for 11 days on the normal feed while allowing them to take tap water freely (Experiment group 1).
# The mice were weighed and their degree of diarrhea and hematochezia were macroscopically observed every day over 11 days from the day of initiating the intake of dextran sulfate sodium. The body weight reduction percentage (%) was determined by dividing the body weight of a mouse at 11th day after initiating the intake of dextran sulfate sodium by the body weight of the mouse at the day of initiating the intake, and multiplying the value by 100, and subtracting the resulting value from 100. The scores of diarrhea and hematochezia and the body weight reduction percentage (%) in each mouse were scored according to the criteria as shown in Table 13. For each group, the average of the total scores of diarrhea and hematochezia on days ranging from the day (intake day 0) of initiating the intake of dextran sulfate sodium to 11th day therefrom (intake day 10) are determined and shown in Table 14. The total scores of diarrhea, hematochezia, and body weight reduction percentage for each mouse at 11th day (intake day 10) after initiating the intake of dextran sulfate sodium are calculated for disease activity index (DAI) used as an index for colitis, averaged for each group, and shown in Table 14. On 11th day after initiating the intake of dextran sulfate sodium, each mouse was collected blood, followed by assaying haptoglobin or an acute phase protein, as an index for inflammatory, on an ELISA kit commercialized by Life Diagnostics USA, and averaging the data for each group. The results are in Table 14 in parallel. Since one mouse in Experiment group 2 administered with only dextran sulfate sodium was dead at 11th day after initiating the intake of dextran sulfate sodium, the results of Experiment group 2 at 11th day (intake day 10) after initiating the intake of dextran sulfate sodium represent the average of seven mice.
# [3] = test system: TNF-α production from NHEK cells; assay: TNF-α production from NHEK cells irradiated with ultraviolet B (Experiment 17); assay type: cell-based, human; settings: for TNF-α: NHEK cells, stimulation by ultraviolet rays
# Protocol: “CELLMATRIX TYPE IV”, a product name of collagen for tissue culture commercialized by Nitta Gelatin Inc., Osaka, Japan, which had been diluted with PBS(K-) by 10 times, was previously placed in “FALCON 35-3001”, a product name of 35 mm petri dish commercialized by Becton Dickinson and Company, NJ, USA, in an amount of 1 mL/plate, and then allowed to stand at ambient temperature for 10 min, followed by removing an excessive amount of CELLMATRIX, drying the petri dish in air, and washing it thrice with PBS(K-). […] The cells were cultured at 37° C. in a 5% v/v CO2 incubator. On the 2nd and 4th days after the cell inoculation, the medium was replaced with EpiLife medium free of EDGS (1 mL/plate). On the 5th day after the cell inoculation, the supernatant was removed, and the petri dish was washed twice by adding 1 mL/petri dish of Hanks' balanced salt solution (called “HBSS (−) buffer”, hereinafter). Further, 2 mL/petri dish of HBSS (−) buffer was added to the petri dish which was then placed in the position 15 cm apart from an ultraviolet ray light source and irradiated with 40 mJ/cm^2 of ultraviolet B radiation. […] As an ultraviolet ray light source, “NS-8F”, a light source for actual use commercialized by Sanwa Medical Co., Ltd., Okayama, Japan, equipped with an ultraviolet B radiation lamp was used, and the radiation dose was measured on “UVR-305/365D (II)”, an ultraviolet ray meter commercialized by Topcon Corporation, Tokyo, Japan. TNF-α was assayed by the same method as in Experiment 2. The remaining other cytokines were assayed with an IL-1α assay kit, commercialized by R & D Systems Inc., MN, USA, and an IL-8 assay kit commercialized by BioLegend, CA, USA.
# [4] = test system: IL-12 production from mouse intraperitoneal macrophages; assay: IC50 for IL-12 production from mouse macrophages, LPS + IFN-γ (Experiment 19); assay type: cell-based; settings: Mus musculus, Macrophage, 20 h, read-out: IC50 Concentration IL-12
# Source text: After completion of the culture, the supernatant in each well was collected and assayed for cytokines and prostaglandin E2 (called “PGE2”, hereinafter) with ELISA.
# [5] = 127 mg/kg i.v. simultaneously, serum 20 hours after Con A
smiles,measurement,setting,value
"OC[C@H]1O[C@@H](n2cnc3c(O)ncnc32)[C@H](O)[C@@H]1O [IN, inosine]",Liver function GOT,[1]; [5],5243
same,Liver function GPT,[1]; [5],2061
same,"Conditions of liver tissue, Necrosis (average score)","[1]; 127 mg/kg i.v., grades mild (1), moderate (2), severe (3)",2.6
same,Content of haptoglobin,[2]; blood on 11th day,3.9 mg/mL
same,"Total scores of diarrhea and hematochezia, day 0",[2]; day 0,0
same,"Total scores of diarrhea and hematochezia, day 1",[2]; day 1,0
same,"Total scores of diarrhea and hematochezia, day 2",[2]; day 2,0
same,"Total scores of diarrhea and hematochezia, day 3",[2]; day 3,0.1
same,"Total scores of diarrhea and hematochezia, day 4",[2]; day 4,0.8
same,"Total scores of diarrhea and hematochezia, day 5",[2]; day 5,1.1
same,"Total scores of diarrhea and hematochezia, day 6",[2]; day 6,1.2
same,"Total scores of diarrhea and hematochezia, day 7",[2]; day 7,1.1
same,"Total scores of diarrhea and hematochezia, day 8",[2]; day 8,1.2
same,"Total scores of diarrhea and hematochezia, day 9",[2]; day 9,1.2
same,"DAI (total scores of diarrhea, hematochezia, and body weight reduction percentage), day 10",[2]; day 10,4.1
same,"Total scores of diarrhea and hematochezia, day 10",[2]; day 10,1.3
same,TNF-α,[3]; 1 μM,141 pg/mL
same,TNF-α,[3]; 5 μM,142 pg/mL
same,TNF-α,[3]; 10 μM,128 pg/mL
same,production of TNF-α from NHEK cells induced by ultraviolet rays,"[3]; UVB 40 mJ/cm^2, supernatant at six hours",did not influence
same,pIC50,[4],< 3.70
